Source: ChEMBL document CHEMBL1201862, “PubChem BioAssay data set” (2004)
Active and inactive are the calls of the source.

Key:
Type in all cases: functional
[1] = target: Melanin-concentrating hormone receptor 1 (Homo sapiens, UniProt Q99705); test: Late-stage fluorescence-based counterscreen for antagonists of the G-protein coupled receptor 7 (GPR7): cell-based dose response assay to identify antagonists of the melanin-concentrating hormone receptor 1 (MCHR1) Set 5.
[2] = target: MAP kinase-activated protein kinase 2 (Homo sapiens, UniProt P49137);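 further: measured as one member of a kinome-wide kinase panel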
Chain of MAP kinase-activated protein kinase 2 (P49137 whole entry): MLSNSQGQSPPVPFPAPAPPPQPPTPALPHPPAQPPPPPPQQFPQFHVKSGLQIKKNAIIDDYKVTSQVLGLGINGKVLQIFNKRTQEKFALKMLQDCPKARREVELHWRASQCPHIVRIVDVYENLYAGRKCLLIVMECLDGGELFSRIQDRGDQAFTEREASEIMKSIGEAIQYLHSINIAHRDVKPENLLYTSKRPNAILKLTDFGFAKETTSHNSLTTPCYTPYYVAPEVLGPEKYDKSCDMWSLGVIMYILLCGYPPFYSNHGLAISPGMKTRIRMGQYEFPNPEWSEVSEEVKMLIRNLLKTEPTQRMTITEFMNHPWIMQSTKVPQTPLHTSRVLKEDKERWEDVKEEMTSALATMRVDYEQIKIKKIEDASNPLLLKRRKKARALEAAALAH

[3] = target: Ribosomal protein S6 kinase beta-1 (Homo sapiens, UniProt P23443);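 further: measured as one member of a kinome-wide profiling panel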
Chain of Ribosomal protein S6 kinase beta-1 (P23443 whole entry): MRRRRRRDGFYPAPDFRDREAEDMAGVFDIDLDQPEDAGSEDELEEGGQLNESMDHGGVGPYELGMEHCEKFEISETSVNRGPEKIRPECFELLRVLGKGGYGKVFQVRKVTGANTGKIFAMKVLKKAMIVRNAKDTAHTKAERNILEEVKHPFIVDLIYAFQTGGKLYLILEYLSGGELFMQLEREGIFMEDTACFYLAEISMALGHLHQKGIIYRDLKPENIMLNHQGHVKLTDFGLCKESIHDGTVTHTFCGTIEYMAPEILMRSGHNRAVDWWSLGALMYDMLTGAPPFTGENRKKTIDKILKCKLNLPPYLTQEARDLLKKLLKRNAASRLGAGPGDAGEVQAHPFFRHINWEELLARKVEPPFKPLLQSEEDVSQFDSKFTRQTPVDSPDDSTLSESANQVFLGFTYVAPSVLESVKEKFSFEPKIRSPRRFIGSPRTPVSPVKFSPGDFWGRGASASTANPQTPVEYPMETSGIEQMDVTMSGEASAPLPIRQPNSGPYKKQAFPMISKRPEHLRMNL

[4] = target: Ribosomal protein S6 kinase alpha-3 (Homo sapiens, UniProt P51812);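 further: measured within a kinome-wide profiling panel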
[5] = target: Glycogen synthase kinase-3 beta (Homo sapiens, UniProt P49841);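 further: value comes from a broad kinome profiling panel, with GSK3B as the panel member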
[6] = target: DNA dC->dU-editing enzyme APOBEC-3G (Homo sapiens, UniProt Q9HC16); test: APOBEC3G deaminase inhibitors, SAR follow-up, biochemical, fluorescence, single-stranded DNA substrate (AID 602136); conditions: read-out: IC50_Mean
[7] = target: DNA dC->dU-editing enzyme APOBEC-3A (Homo sapiens, UniProt P31941); test: SAR analysis of small molecule inhibitors of APOBEC3A DNA Deaminase via a fluorescence-based single-stranded DNA deaminase assay.; conditions: read-out: IC50_Mean
Chain of DNA dC->dU-editing enzyme APOBEC-3A (P31941 whole entry): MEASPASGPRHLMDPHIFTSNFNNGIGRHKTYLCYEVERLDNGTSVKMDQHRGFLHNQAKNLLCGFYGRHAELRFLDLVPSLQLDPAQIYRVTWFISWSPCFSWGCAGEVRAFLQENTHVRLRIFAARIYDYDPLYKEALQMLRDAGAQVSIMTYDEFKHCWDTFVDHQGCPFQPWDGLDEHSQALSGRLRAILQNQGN

[8] = target: Macrophage-stimulating protein receptor (Homo sapiens, UniProt Q04912); test: Navigating the Kinome. Panel member name: MST1R
[9] = target: MAP/microtubule affinity-regulating kinase 3 (Homo sapiens, UniProt P27448);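 further: MARK3 affinity measured as one member of a kinome panel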
[10] = target: Serine/threonine-protein kinase SIK2 (Homo sapiens, UniProt Q9H0K1); test: Navigating the Kinome. Panel member name: SIK2
[11] = target: Dual specificity tyrosine-phosphorylation-regulated kinase 1B (Homo sapiens, UniProt Q9Y463); test: Navigating the Kinome. Panel member name: DYRK1B
[12] = target: Leukocyte tyrosine kinase receptor (Homo sapiens, UniProt P29376); test: Navigating the Kinome. Panel member name: LTK
[13] = target: Death-associated protein kinase 3 (Homo sapiens, UniProt O43293);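 further: measured as one member of a kinome-wide profiling panel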
[14] = target: BDNF/NT-3 growth factors receptor (Homo sapiens, UniProt Q16620);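 further: NTRK2 measured as one member of a broad kinome-wide kinase profiling panel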
Chain of BDNF/NT-3 growth factors receptor (Q16620 whole entry): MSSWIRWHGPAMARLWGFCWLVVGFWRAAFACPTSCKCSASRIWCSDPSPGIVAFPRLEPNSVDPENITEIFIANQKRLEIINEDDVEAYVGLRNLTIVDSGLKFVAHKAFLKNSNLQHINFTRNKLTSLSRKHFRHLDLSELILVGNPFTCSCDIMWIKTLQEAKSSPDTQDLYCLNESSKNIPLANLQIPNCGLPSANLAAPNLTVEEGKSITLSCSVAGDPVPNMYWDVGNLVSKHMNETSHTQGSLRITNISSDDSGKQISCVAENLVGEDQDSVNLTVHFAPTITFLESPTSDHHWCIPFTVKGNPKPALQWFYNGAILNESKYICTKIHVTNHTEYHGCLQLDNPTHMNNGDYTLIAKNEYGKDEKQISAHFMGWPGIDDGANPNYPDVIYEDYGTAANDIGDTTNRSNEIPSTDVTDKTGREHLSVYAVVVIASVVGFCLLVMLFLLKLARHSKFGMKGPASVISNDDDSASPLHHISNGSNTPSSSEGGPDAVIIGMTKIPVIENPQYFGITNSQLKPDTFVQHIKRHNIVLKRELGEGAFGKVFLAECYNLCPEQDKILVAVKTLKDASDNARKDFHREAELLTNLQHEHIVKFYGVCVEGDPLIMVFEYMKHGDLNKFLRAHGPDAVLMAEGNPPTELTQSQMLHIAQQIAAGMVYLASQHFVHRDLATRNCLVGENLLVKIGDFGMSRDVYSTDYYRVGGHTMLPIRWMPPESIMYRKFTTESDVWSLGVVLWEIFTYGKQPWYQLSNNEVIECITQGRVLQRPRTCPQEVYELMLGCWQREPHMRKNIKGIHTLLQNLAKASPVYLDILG

[15] = target: Proto-oncogene tyrosine-protein kinase ROS (Homo sapiens, UniProt P08922);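 further: ROS1 tested as one member of a kinome-wide kinase panel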
[16] = target: Tyrosine-protein kinase receptor TYRO3 (Homo sapiens, UniProt Q06418);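 further: TYRO3 value obtained as one member of a kinome-wide profiling panel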
[17] = target: Mitogen-activated protein kinase kinase kinase kinase 2 (Homo sapiens, UniProt Q12851);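 further: measured as one member of a kinome-wide kinase panel, with MAP4K2 as the panel entry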
Chain of Mitogen-activated protein kinase kinase kinase kinase 2 (Q12851 whole entry): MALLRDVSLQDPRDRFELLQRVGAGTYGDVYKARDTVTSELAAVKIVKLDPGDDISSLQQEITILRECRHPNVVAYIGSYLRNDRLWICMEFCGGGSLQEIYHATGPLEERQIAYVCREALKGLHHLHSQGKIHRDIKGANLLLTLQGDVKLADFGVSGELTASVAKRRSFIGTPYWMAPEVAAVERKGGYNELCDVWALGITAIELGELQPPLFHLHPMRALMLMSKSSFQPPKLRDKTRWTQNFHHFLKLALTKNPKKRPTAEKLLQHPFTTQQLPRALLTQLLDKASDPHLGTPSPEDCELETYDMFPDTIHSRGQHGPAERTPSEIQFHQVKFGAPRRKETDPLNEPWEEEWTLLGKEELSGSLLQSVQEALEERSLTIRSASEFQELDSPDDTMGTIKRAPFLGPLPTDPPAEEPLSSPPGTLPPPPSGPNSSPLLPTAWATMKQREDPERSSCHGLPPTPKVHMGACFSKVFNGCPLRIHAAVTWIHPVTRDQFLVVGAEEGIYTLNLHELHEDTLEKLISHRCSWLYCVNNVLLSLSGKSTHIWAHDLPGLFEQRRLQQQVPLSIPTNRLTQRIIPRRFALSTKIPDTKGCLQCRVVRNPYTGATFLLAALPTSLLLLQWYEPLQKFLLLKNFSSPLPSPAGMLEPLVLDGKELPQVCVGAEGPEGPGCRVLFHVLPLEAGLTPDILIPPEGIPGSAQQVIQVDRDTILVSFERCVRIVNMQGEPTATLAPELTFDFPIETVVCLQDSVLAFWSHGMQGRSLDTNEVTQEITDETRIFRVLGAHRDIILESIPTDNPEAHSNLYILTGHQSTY

[18] = target: Glycogen synthase kinase-3 alpha (Homo sapiens, UniProt P49840);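 further: GSK3A result taken from a broad kinome-wide kinase panel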
[19] = target: Serine/threonine-protein kinase D3 (Homo sapiens, UniProt O94806);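 further: determined within a kinase panel screen, with PRKCN as the panel member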
[20] = target: Serine/threonine-protein kinase TAO1 (Homo sapiens, UniProt Q7L7X3)
Chain of Serine/threonine-protein kinase TAO1 (Q7L7X3 whole entry): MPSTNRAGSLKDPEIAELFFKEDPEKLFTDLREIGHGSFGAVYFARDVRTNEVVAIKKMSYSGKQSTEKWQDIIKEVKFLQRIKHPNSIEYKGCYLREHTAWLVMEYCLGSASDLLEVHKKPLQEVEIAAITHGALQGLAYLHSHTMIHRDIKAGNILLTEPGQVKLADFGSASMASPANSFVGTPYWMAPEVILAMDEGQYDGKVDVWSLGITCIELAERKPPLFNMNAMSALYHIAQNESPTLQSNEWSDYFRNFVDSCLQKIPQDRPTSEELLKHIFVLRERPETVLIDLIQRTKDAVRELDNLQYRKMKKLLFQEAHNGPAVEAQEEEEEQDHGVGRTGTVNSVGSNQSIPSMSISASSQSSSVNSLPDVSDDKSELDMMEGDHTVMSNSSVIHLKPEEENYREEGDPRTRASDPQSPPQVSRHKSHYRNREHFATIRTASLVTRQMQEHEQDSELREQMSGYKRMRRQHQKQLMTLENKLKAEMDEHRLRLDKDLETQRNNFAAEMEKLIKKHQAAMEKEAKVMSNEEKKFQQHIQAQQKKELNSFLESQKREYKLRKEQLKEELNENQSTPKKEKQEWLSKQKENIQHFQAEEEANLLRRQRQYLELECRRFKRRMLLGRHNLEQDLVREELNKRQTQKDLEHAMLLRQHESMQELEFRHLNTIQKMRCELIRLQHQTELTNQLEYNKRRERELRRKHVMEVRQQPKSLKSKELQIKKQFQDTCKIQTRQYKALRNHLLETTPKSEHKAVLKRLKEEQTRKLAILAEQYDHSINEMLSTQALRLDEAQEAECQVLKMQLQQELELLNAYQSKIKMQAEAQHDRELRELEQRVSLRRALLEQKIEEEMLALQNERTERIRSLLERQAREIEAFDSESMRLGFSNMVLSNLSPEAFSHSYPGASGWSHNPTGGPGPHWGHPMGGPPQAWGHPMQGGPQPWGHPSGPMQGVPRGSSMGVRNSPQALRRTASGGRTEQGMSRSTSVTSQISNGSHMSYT

[21] = target: Maternal embryonic leucine zipper kinase (Homo sapiens, UniProt Q14680)
[22] = target: MAP/microtubule affinity-regulating kinase 4 (Homo sapiens, UniProt Q96L34); test: Navigating the Kinome. Panel member name: MARK4
Chain of MAP/microtubule affinity-regulating kinase 4 (Q96L34 whole entry): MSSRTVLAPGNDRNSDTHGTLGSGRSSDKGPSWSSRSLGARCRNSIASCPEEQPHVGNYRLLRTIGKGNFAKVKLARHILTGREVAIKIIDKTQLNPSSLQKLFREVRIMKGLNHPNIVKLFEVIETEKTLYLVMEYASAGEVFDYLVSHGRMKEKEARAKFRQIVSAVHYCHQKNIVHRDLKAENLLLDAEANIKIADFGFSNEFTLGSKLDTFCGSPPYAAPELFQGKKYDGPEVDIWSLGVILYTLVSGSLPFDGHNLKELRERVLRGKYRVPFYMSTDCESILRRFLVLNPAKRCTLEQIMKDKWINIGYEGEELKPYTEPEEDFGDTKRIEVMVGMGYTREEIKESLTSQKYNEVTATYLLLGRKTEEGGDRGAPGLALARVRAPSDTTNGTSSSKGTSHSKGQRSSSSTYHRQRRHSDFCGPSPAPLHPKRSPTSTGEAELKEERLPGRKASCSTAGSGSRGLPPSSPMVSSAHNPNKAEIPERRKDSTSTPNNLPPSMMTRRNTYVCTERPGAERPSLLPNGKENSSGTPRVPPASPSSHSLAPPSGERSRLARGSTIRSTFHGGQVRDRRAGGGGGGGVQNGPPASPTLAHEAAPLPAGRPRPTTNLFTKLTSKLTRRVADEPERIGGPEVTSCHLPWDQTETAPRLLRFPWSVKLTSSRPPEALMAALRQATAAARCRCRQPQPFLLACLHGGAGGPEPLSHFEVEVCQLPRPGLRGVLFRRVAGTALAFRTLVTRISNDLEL

Chain of Melanin-concentrating hormone receptor 1 (Q99705 whole entry): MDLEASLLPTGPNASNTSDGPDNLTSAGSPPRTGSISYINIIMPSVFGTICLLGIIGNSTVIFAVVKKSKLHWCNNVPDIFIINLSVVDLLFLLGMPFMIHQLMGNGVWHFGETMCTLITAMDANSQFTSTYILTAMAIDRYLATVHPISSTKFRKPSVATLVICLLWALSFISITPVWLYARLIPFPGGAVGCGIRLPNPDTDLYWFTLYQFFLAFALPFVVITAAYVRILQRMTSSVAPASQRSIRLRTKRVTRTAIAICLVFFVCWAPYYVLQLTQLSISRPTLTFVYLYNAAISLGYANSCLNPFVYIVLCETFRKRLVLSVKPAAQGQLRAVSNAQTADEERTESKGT

For COc1ccc(Oc2c(Cl)cnn(Cc3cccc4ccccc34)c2=O)c(F)c1, the IC50 [1] was 6240 nM (active).
With CCOC(=O)c1c(NC(=O)C2C(C)(C)C2(C)C)sc2cnccc12 the Ki [2] was 6310 nM (active), the Ki [3] was 2510 nM (active) and the Ki [4] was 6310 nM (active). The Ki [5] was 3980 nM (active).
In the case of CCCCn1c(=O)c2ccccc2n2c(SCCS(=O)(=O)c3ccccc3)nnc12, the IC50 [6] is reported as > 99000 nM (inactive) and the IC50 [7] is reported as > 99000 nM (inactive).
Nc1nc(Nc2ccc(S(N)(=O)=O)cc2)nn1C(=O)c1c(F)cccc1F [JNJ-7706621] was tested, and the Ki [8] was 100 nM (active), the Ki [9] was 794 nM (active) and the Ki [10] was 251 nM (active). For the same compound, the Ki [11] was > 2000 nM (inactive), the Ki [12] was > 1580 nM (inactive) and the Ki [13] was 2000 nM (active). For the same compound, the Ki [14] was 2000 nM (active), the Ki [15] was 501 nM (active) and the Ki [16] was 794 nM (active). For the same compound, the Ki [17] was 1580 nM (active), the Ki [18] was 158 nM (active) and the Ki [19] was 2000 nM (active). The Ki [20] was 25.1 nM (active), the Ki [21] was 631 nM (active) and the Ki [22] was 100 nM (active).
